Converted amounts (≈) assume the structure as drawn. Like-named read-outs stand apart in the source and are kept apart here.
Experiments:
[1] = tested on: Alcaligenes faecalis IFO 13111; test: in vitro antibacterial activity, standard agar dilution method; format: cell-based; details: IFO13111, aerobic, read-out: minimum inhibitory concentration (MIC)
[2] = tested on: Pseudomonas aeruginosa A3; test: as above; format: cell-based; details: aerobic, read-out: minimum inhibitory concentration (MIC)
[3] = tested on: Enterobacter aerogenes NR 2945; test: as above; format: cell-based; details: Klebsiella aerogenes, NR2945, aerobic, read-out: minimum inhibitory concentration (MIC)
[4] = tested on: Citrobacter freundii IFO 12681; test: as above; format: cell-based; details: IFO12681, aerobic, read-out: minimum inhibitory concentration (MIC)
[5] = tested on: Klebsiella pneumoniae FDA PCI 602; test: as above; format: cell-based; details: FDAPCI602, aerobic, read-out: minimum inhibitory concentration (MIC)
[6] = tested on: Proteus rettgeri ATCC 14505; test: as above; format: cell-based; details: Providencia rettgeri, ATCC14505, aerobic, read-out: minimum inhibitory concentration (MIC)
[7] = tested on: Enterobacter cloacae NR 2946; test: as above; format: cell-based; details: NR2946, aerobic, read-out: minimum inhibitory concentration (MIC)
[8] = tested on: Pseudomonas aeruginosa NR 2950; test: as above; format: cell-based; details: NR2950, aerobic, read-out: minimum inhibitory concentration (MIC)
[9] = tested on: Escherichia coli NIHJ JC-2; test: as above; format: cell-based; details: NIHJJC2, aerobic, read-out: minimum inhibitory concentration (MIC)
[10] = tested on: Enterococcus faecalis NR 2943; test: as above; format: cell-based; details: NR2943, aerobic, read-out: minimum inhibitory concentration (MIC)
[11] = tested on: Serratia marcescens IFO 12648; test: as above; format: cell-based; details: IFO12648, aerobic, read-out: minimum inhibitory concentration (MIC)
[12] = tested on: Staphylococcus aureus Smith; test: as above; format: cell-based; details: read-out: minimum inhibitory concentration (MIC)
[13] = acute toxicity by oral administration; details: mouse, in vivo; oral administration, ICR mice; read-out: LD50
Source text: The acute toxicity of these compounds was examined by oral administration in ICR mice.

[14] = tested on: Bordetella bronchiseptica ATCC 4617; test: in vitro antibacterial activity, standard agar dilution method; format: cell-based; details: ATCC4617, aerobic, read-out: minimum inhibitory concentration (MIC)
[15] = tested on: Proteus vulgaris OX19 ATCC 6898; test: as above; format: cell-based; details: ATCC6898, aerobic, read-out: minimum inhibitory concentration (MIC)
[16] = tested on: Salmonella typhimurium IFO 12529; test: as above; format: cell-based; details: Salmonella enterica, aerobic, read-out: minimum inhibitory concentration (MIC)
[17] = tested on: Staphylococcus epidermidis IFO 12993; test: as above; format: cell-based; details: IFO12993, aerobic, read-out: minimum inhibitory concentration (MIC)
[18] = tested on: Bacillus subtilis PCI 219; test: as above; format: cell-based; details: PCI219, aerobic, read-out: minimum inhibitory concentration (MIC)
[19] = tested on: Staphylococcus aureus FDA 209P JC-1; test: as above; format: cell-based; details: FDA209P, read-out: minimum inhibitory concentration (MIC)
Escherichia coli NR 2630 = test: as above; format: cell-based
[20] = tested on: Staphylococcus aureus NR 2855; test: as above; format: cell-based; details: NR2855; Staphylococcus aureus NR 2855; aerobic; agar dilution; read-out: minimum inhibitory concentration (MIC)
[21] = tested on: Staphylococcus epidermidis NR 2942; test: as above; format: cell-based; details: NR2942, aerobic, read-out: minimum inhibitory concentration (MIC)
[22] = tested on: Pseudomonas stutzeri IFO 12695; test: as above; format: cell-based; details: Stutzerimonas stutzeri, IFO12695, aerobic, read-out: minimum inhibitory concentration (MIC)
[23] = Staphylococcus aureus Smith, aerobic, agar dilution
[24] = NR2630, Escherichia coli NR 2630, aerobic, agar dilution, read-out: minimum inhibitory concentration (MIC)

| SMILES | MIC [1] [µg/mL] | MIC [2] [µg/mL] | MIC [3] [µg/mL] | MIC [4] [µg/mL] | MIC [5] [µg/mL] | MIC [6] [µg/mL] | MIC [7] [µg/mL] | MIC [8] [µg/mL] | MIC [9] [µg/mL] | MIC [10] [µg/mL] | MIC [11] [µg/mL] | LD50 [13] [mg/kg] | MIC [14] [µg/mL] | MIC [15] [µg/mL] | MIC [16] [µg/mL] | MIC [17] [µg/mL] | MIC [18] [µg/mL] | MIC [20] [µg/mL] | MIC [21] [µg/mL] | MIC [22] [µg/mL] | other results |
| --- | --- | --- | --- | --- | --- | --- | --- | --- | --- | --- | --- | --- | --- | --- | --- | --- | --- | --- | --- | --- | --- |
| CN1COc2c(N3CCNCC3)c(F)cc3c(=O)c(C(=O)O)cn1c23 [Example 6, 9-fluoro-3-methyl-7-oxo-10-(1-piperazinyl)-2,3-dihydro-7H-pyrido[3,2,1-ij]-1,3,4-benzoxadiazine-6-carboxylic acid] | 3.13 (≈ 8.99 µM) | 0.1 (≈ 0.287 µM) | 0.013 (≈ 0.0373 µM) | 0.013 (≈ 0.0373 µM) | 0.1 (≈ 0.287 µM) | 0.1 (≈ 0.287 µM) | 0.025 (≈ 0.0718 µM) | 0.78 (≈ 2.24 µM) | 0.025 (≈ 0.0718 µM) | 12.5 (≈ 35.9 µM) | 0.1 (≈ 0.287 µM) | > 2000 | 6.25 (≈ 17.9 µM) | 0.013 (≈ 0.0373 µM) | 0.013 (≈ 0.0373 µM) | 1.56 (≈ 4.48 µM) | 0.1 (≈ 0.287 µM) | 3.13 (≈ 8.99 µM) | 1.56 (≈ 4.48 µM) | 0.025 (≈ 0.0718 µM) | MIC ([12]; Staphylococcus aureus): 0.39 µg/mL (≈ 1.12 µM); MIC ([19]; Staphylococcus aureus): 0.39 µg/mL (≈ 1.12 µM); MIC (Escherichia coli NR 2630; Escherichia coli, NR2630, read-out: minimum inhibitory concentration (MIC)): 0.025 µg/mL (≈ 0.0718 µM) |
| CC1CN(c2c(F)cc3c(=O)c(C(=O)O)cn4c3c2OCN4C)CCN1 (stereo not drawn) [Example 7, 9-fluoro-3-methyl-10-(3-methyl-1-piperazinyl)-7-oxo-2,3-dihydro-7H-pyrido[3,2,1-ij]-1,3,4-benzoxadiazine-6-carboxylic acid] | 6.25 (≈ 17.2 µM) | 0.2 (≈ 0.552 µM) | 0.05 (≈ 0.138 µM) | 0.05 (≈ 0.138 µM) | 0.39 (≈ 1.08 µM) | 0.78 (≈ 2.15 µM) | 0.1 (≈ 0.276 µM) | 3.13 (≈ 8.64 µM) | 0.1 (≈ 0.276 µM) | 12.5 (≈ 34.5 µM) | 0.2 (≈ 0.552 µM) | > 2000 | 3.13 (≈ 8.64 µM) | 0.025 (≈ 0.069 µM) | 0.05 (≈ 0.138 µM) | 0.78 (≈ 2.15 µM) | 0.1 (≈ 0.276 µM) | 1.56 (≈ 4.31 µM) | 0.78 (≈ 2.15 µM) | 0.05 (≈ 0.138 µM) | MIC [12, 23]: 0.2 µg/mL (≈ 0.552 µM); MIC ([19]; Staphylococcus aureus): 0.39 µg/mL (≈ 1.08 µM); MIC (Escherichia coli NR 2630; [24]): 0.025 µg/mL (≈ 0.069 µM) |
| CN1COc2c(N3CCCNCC3)c(F)cc3c(=O)c(C(=O)O)cn1c23 [Example 16] | 50 (≈ 138 µM) | 0.39 (≈ 1.08 µM) | 0.05 (≈ 0.138 µM) | 0.1 (≈ 0.276 µM) | 1.56 (≈ 4.31 µM) | 1.56 (≈ 4.31 µM) | 0.1 (≈ 0.276 µM) | 6.25 (≈ 17.2 µM) | 0.2 (≈ 0.552 µM) | 25 (≈ 69 µM) | 0.39 (≈ 1.08 µM) | > 2000 | 25 (≈ 69 µM) | 0.1 (≈ 0.276 µM) | 0.1 (≈ 0.276 µM) | 1.56 (≈ 4.31 µM) | 0.2 (≈ 0.552 µM) | 6.25 (≈ 17.2 µM) | 1.56 (≈ 4.31 µM) | 0.05 (≈ 0.138 µM) | MIC [12, 23]: 0.39 µg/mL (≈ 1.08 µM); MIC ([19]; Staphylococcus aureus FDA 209P JC-1, aerobic, agar dilution): 0.39 µg/mL (≈ 1.08 µM) |
| CN1COc2c(N3CCN(CS(=O)(=O)O)CC3)c(F)cc3c(=O)c(C(=O)O)cn1c23 [Example 52, disodium 9-fluoro-3-methyl-7-oxo-10-[4-(sulfonatomethyl)-1-piperazinyl]-2,3-dihydro-7H-pyrido-[3,2,1-ij]-1,3,4-benzoxadiazine-6-carboxylate] | 12.5 | 0.2 | 0.025 | 0.025 | 0.2 | 0.2 | 0.05 | 1.56 | 0.05 | 25 | 0.2 | – | 6.25 | 0.025 | 0.025 | 1.56 | 0.2 | 3.13 | 1.56 | 0.05 | MIC ([12]; Staphylococcus aureus): 0.39 µg/mL; MIC ([19]; Staphylococcus aureus): 0.39 µg/mL; MIC (Escherichia coli NR 2630; [24]): 0.025 µg/mL |
